# From publication PMC10023787, “Trio-pharmacophore DNA-encoded chemical library for simultaneous selection of fragments and linkers” (Nature Communications, 2023)
# “Also recorded” adds a separate entry of the source. Where two headings read alike, the source gives them in different places.
# How the values were obtained:
# MMP-2 [1] = biological target: T1, MMP-2 (Homo sapiens, UniProt P08253); assay: MMP-2 inhibition assay (fluorogenic peptide substrate); type: biochemical; settings: for remaining activity at 0.0156098 µM: fragment concentration 0.0156098 µM; for remaining activity at 0.0780488 µM: fragment concentration 0.0780488 µM; for remaining activity at 0.390244 µM: fragment concentration 0.390244 µM; for remaining activity at 1.95122 µM: fragment concentration 1.95122 µM; for remaining activity at 9.7561 µM: fragment concentration 9.7561 µM; for remaining activity at 48.7805 µM: fragment concentration 48.7805 µM; for remaining activity at 243.902 µM: fragment concentration 243.902 µM; for remaining activity at 0.0156 µM: concentration 0.0156 µM; for remaining activity at 0.39 µM: concentration 0.39 µM; for remaining activity at 1.95 µM: concentration 1.95 µM; for remaining activity at 9.76 µM: concentration 9.76 µM; for remaining activity at 48.78 µM: concentration 48.78 µM; for remaining activity at 243.9 µM: concentration 243.90 µM; for inhibitory effect: in words; for IC50: mean ± SE, n.d: not detected, Fig. 5d unit inferred, µM, read-out: IC50
# T1 construct: purchased Sino Biological 10082-HNAH
# T1 sequence (P08253 110-660): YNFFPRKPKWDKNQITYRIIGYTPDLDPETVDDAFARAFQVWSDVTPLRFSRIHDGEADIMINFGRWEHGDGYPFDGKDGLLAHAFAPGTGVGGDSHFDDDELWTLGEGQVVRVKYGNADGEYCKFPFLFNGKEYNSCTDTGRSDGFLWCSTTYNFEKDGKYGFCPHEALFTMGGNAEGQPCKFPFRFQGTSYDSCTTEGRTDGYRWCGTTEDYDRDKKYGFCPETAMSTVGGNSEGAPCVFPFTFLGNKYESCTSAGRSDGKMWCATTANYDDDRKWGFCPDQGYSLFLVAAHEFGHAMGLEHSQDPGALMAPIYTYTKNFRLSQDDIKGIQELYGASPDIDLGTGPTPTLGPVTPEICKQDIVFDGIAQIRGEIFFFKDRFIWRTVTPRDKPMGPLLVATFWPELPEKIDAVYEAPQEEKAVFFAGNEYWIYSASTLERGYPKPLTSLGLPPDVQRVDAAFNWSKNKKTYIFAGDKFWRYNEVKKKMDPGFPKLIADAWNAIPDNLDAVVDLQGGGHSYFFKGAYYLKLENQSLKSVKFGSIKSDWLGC
# How it was run: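 Human proMMP-2 and proMMP-9 were activated with 1 mM APMA for 2 h at 37 °C, then used at 6.5 nM (MMP-2) or 10 nM (MMP-9) final in Tris/NaCl/CaCl2/Brij 35 buffer, pH 7.5. After 30 min preincubation with compound at RT, 25 μM FRET peptide substrate was added and fluorescence (ex 280/em 360 nm) followed for 30 min. IC50 came from logistic fits of Vmax.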
# MMP-2 [2] = biological target: T1, MMP-2; assay: Dynamic dual-pharmacophore DEL selection against MMP-2, NGS decoding; type: binding; settings: MMP2 selection
# From the text: Matrix metalloproteinases (MMPs) are zinc-dependent endopeptidases capable of degrading and remodeling extracellular matrix components[46],[47]. They are attractive therapeutic targets as high expression levels were detected in various diseases, such as inflammatory diseases, and at different stages of cancers, including metastasis, invasion, and angiogenesis[47]–[53]. As shown in Supplementary Fig. 3c, we performed selections against the two gelatinases (human MMP-2 and human MMP-9) to identify binding fragments for later design and synthesis of small molecule inhibitors. After selection, the three sub-libraries were decoded, and the enrichment was calculated by dividing the post-selection fraction (count/total counts) by the pre-selection fraction (Fig. 4a and Supplementary Fig. 13).
# 4 µg of MMP-2/MMP-9 was dissolved in 100 µl of selection buffer containing 25 mM Tris-base, 10 mM CaCl2, 150 mM NaCl, 0.05% Tween 20, pH 7.5. 10 µl of 4-Aminophenylmercuric acetate (APMA) (100 mM) solution was added to the protein solution and incubated at 37 °C for 1 h. After activation, the solution was added on top of 40 µl pre-washed Ni-NTA resin and incubated for 30 min on a rotary shaker. The supernatant was discarded, and the resin was washed three times with the selection buffer.
# For each independent selection, three sub-libraries were mixed in the selection buffer with a final concentration of 40 nM of each sub-library in 100 µl. The mixture was heat denatured at 90 °C for 1 min and slowly cooled down to allow the formation of the trio-pharmacophore library. The dynamic dual-pharmacophore DEL was provided by DyNAbind GmbH (Merck, DYNA001).
# The assembled library was incubated with the protein-bound solid support for 2 h at RT on a rotary shaker. In parallel, selection on bare solid support served as the negative control to exclude promiscuous binders on the resin. After panning, the supernatant was discarded, and the resin was washed three times with 1 ml selection buffer. Finally, 100 µl of 50 mM Tris buffer, pH 7.4 was added to resuspend the resin and the resin was incubated at 95 °C for 5 min to denature the protein, release, and collect the bound library members.
# The eluted library members were subjected to sample preparation for NGS. NGS preparation was achieved by two-step PCR. First, the individual selection was indexed using primers containing unique sequences corresponding to each selection. The amplified product was purified from 2% agarose gel. Second, the purified DNA from all selections were pooled in equal amount and subjected to the 2nd PCR step to attach sequences compatible with the NGS flow cell and the sequencing primers. NGS was performed by Novogene UK with Novaseq 6000. Raw data files (fastq files) obtained were decoded using a custom python script and excel. The sequence reads corresponding to each sample was retrieved by searching for the correct index unique to each selection. Then, the code region was extracted from each sequence and assigned to the corresponding identity. The count of each code in each selection sample was obtained by looping through the total reads and counting the occurrence of each code. The enrichment fold of each compound was calculated by first, dividing the count by the total count to get the abundance, second, the abundance after the selection was divided by the abundance of pre-selection to reflect the distribution change of the compound. Next, the enrichment fold was plotted against the count for each member of the library to give the scatter plots as in Fig. 4.
# [3] = Figure 5a, read-out: Normalized activity (Mean)
# [4] = Figure 5a, fragment concentration 1219.51 µM, read-out: Normalized activity (Mean)
# [5] = MMP-2, read-out: Mean (dose-response, Supplementary fig 17)
# [6] = MMP-2, read-out: Mean (MMP-2 dose-response, Supplementary fig 15)
smiles,measurement,setting,value
O=C(O)CNC(=O)NC12CC3CC(CC(C3)C1)C2 [Compound 66],remaining activity at 0.0156098 µM,MMP-2 [1]; [3],92.7%
same,remaining activity at 0.0780488 µM,MMP-2 [1]; [3],95.8%
same,remaining activity at 0.390244 µM,MMP-2 [1]; [3],93.9%
same,remaining activity at 1.95122 µM,MMP-2 [1]; [3],110%
same,remaining activity at 9.7561 µM,MMP-2 [1]; [3],93.7%
same,remaining activity at 48.7805 µM,MMP-2 [1]; [3],92.7%
same,remaining activity at 243.902 µM,MMP-2 [1]; [3],92.2%
same,remaining activity at 1219.51 µM,MMP-2 [1]; [4],85.5%
same,remaining activity at 0.0156 µM,MMP-2 [1]; [5],92.7%
same,remaining activity at 0.08 µM,"MMP-2 [1]; MMP-2, concentration 0.08 µM, read-out: Mean (dose-response, Supplementary fig 17)",95.8%
same,remaining activity at 0.39 µM,MMP-2 [1]; [5],93.9%
same,remaining activity at 1.95 µM,MMP-2 [1]; [5],110%
same,remaining activity at 9.76 µM,MMP-2 [1]; [5],93.7%
same,remaining activity at 48.78 µM,MMP-2 [1]; [5],92.7%
same,remaining activity at 243.9 µM,MMP-2 [1]; [5],92.2%
same,remaining activity at 1219.51 µM,"MMP-2 [1]; MMP-2, concentration 1219.51 µM, read-out: Mean (dose-response, Supplementary fig 17)",85.5%
same,inhibitory effect,MMP-2 [1],No inhibitory effects could be measured; also recorded: did not exhibit meaningful activity
same,Enrichment Fold,MMP-2 [2]; 3L sub-library,1.69
same,Count,"MMP-2 [2]; 3L sub-library, NGS sequence count",477
same,Enrichment Fold,MMP-2 [2]; 5L sub-library,1.932
same,Count,"MMP-2 [2]; 5L sub-library, NGS sequence count",4327
O=C(O)Cn1cnc2c(oc3ccccc32)c1=O [Compound 182],remaining activity at 0.0152381 µM,"MMP-2 [1]; Figure 5a, fragment concentration 0.0152381 µM, read-out: Normalized activity (Mean)",97.3%
same,remaining activity at 0.0761905 µM,"MMP-2 [1]; Figure 5a, fragment concentration 0.0761905 µM, read-out: Normalized activity (Mean)",97.1%
same,remaining activity at 0.380952 µM,"MMP-2 [1]; Figure 5a, fragment concentration 0.380952 µM, read-out: Normalized activity (Mean)",98.7%
same,remaining activity at 1.90476 µM,"MMP-2 [1]; Figure 5a, fragment concentration 1.90476 µM, read-out: Normalized activity (Mean)",98.1%
same,remaining activity at 9.52381 µM,"MMP-2 [1]; Figure 5a, fragment concentration 9.52381 µM, read-out: Normalized activity (Mean)",87.4%
same,remaining activity at 47.619 µM,"MMP-2 [1]; Figure 5a, fragment concentration 47.619 µM, read-out: Normalized activity (Mean)",71.6%
same,remaining activity at 238.095 µM,"MMP-2 [1]; Figure 5a, fragment concentration 238.095 µM, read-out: Normalized activity (Mean)",16.9%
same,remaining activity at 1190.48 µM,"MMP-2 [1]; Figure 5a, fragment concentration 1190.48 µM, read-out: Normalized activity (Mean)",0%
same,remaining activity at 0.0152 µM,"MMP-2 [1]; MMP-2, concentration 0.0152 µM, read-out: Mean (MMP-2, Supplementary fig 16)",97.3%
same,remaining activity at 0.08 µM,"MMP-2 [1]; MMP-2, concentration 0.08 µM, read-out: Mean (MMP-2, Supplementary fig 16)",97.1%
same,remaining activity at 1.9 µM,"MMP-2 [1]; MMP-2, concentration 1.90 µM, read-out: Mean (MMP-2, Supplementary fig 16)",98.2%
same,remaining activity at 9.52 µM,"MMP-2 [1]; MMP-2, concentration 9.52 µM, read-out: Mean (MMP-2, Supplementary fig 16)",87.4%
same,remaining activity at 47.62 µM,"MMP-2 [1]; MMP-2, concentration 47.62 µM, read-out: Mean (MMP-2, Supplementary fig 16)",71.6%
same,remaining activity at 238.1 µM,"MMP-2 [1]; MMP-2, concentration 238.10 µM, read-out: Mean (MMP-2, Supplementary fig 16)",16.9%
same,remaining activity at 0.38 µM,"MMP-2 [1]; MMP-2, concentration 0.38 µM, read-out: Mean (MMP-2, Supplementary fig 16)",98.7%
same,IC50,MMP-2 [1],95.8 µM
same,Enrichment Fold,MMP-2 [2]; 3L sub-library,1.088
same,Count,"MMP-2 [2]; 3L sub-library, sequence count per compound ID",1179
same,Enrichment Fold,MMP-2 [2]; 5L sub-library,1.688
same,Count,"MMP-2 [2]; 5L sub-library, sequence count per compound ID",5803
Cc1cc(=O)[nH]c(-n2nc(C)c(CCC(=O)O)c2C)n1 [Compound 693],remaining activity at 0.0156098 µM,MMP-2 [1]; [3],93%
same,remaining activity at 0.0780488 µM,MMP-2 [1]; [3],96.4%
same,remaining activity at 0.390244 µM,MMP-2 [1]; [3],90.7%
same,remaining activity at 1.95122 µM,MMP-2 [1]; [3],92.4%
same,remaining activity at 9.7561 µM,MMP-2 [1]; [3],83.6%
same,remaining activity at 48.7805 µM,MMP-2 [1]; [3],70.5%
same,remaining activity at 243.902 µM,MMP-2 [1]; [3],41.9%
same,remaining activity at 1219.51 µM,MMP-2 [1]; [4],5.76%
same,remaining activity at 0.0156 µM,MMP-2 [1]; [6],93%
same,remaining activity at 0.08 µM,"MMP-2 [1]; MMP-2, concentration 0.08 µM, read-out: Mean (MMP-2 dose-response, Supplementary fig 15)",96.3%
same,remaining activity at 0.39 µM,MMP-2 [1]; [6],90.7%
same,remaining activity at 1.95 µM,MMP-2 [1]; [6],92.4%
same,remaining activity at 9.75 µM,"MMP-2 [1]; MMP-2, concentration 9.75 µM, read-out: Mean (MMP-2 dose-response, Supplementary fig 15)",83.6%
same,remaining activity at 9.76 µM,MMP-2 [1]; [6],83.6%
same,remaining activity at 48.76 µM,"MMP-2 [1]; MMP-2, concentration 48.76 µM, read-out: Mean (MMP-2 dose-response, Supplementary fig 15)",70.5%
same,remaining activity at 48.78 µM,MMP-2 [1]; [6],70.5%
same,remaining activity at 243.8 µM,"MMP-2 [1]; MMP-2, concentration 243.80 µM, read-out: Mean (MMP-2 dose-response, Supplementary fig 15)",41.9%
same,remaining activity at 243.9 µM,MMP-2 [1]; [6],41.9%
same,remaining activity at 1219.51 µM,"MMP-2 [1]; MMP-2, concentration 1219.51 µM, read-out: Mean (MMP-2 dose-response, Supplementary fig 15)",5.76%
same,inhibitory effect,MMP-2 [1],high µM range
same,IC50,MMP-2 [1],169 ± 15.8 µM
same,MMP2 3L Enrichment Fold,MMP-2 [2]; 3L library (Supplementary fig 13),0.8647
same,MMP2 3L Count,"MMP-2 [2]; 3L library, sequence count (Supplementary fig 13)",991
same,MMP2 5L Enrichment Fold,MMP-2 [2]; 5L library (Supplementary fig 13),3.023
same,MMP2 5L Count,"MMP-2 [2]; 5L library, sequence count (Supplementary fig 13)",6628
